# Where a SMILES comes first, the peptide text is derived from it. Bridges are numbered along the chain shown (N, C = ends). [ ]: non-standard residue; d: D form. The star is where a group is joined. Val(Nα-amidino) = CC(C)[C@H](NC(=N)N)C(=O)*; Hyp = O=C(O)[C@@H]1C[C@@H](O)CN1; Cit = NC(=O)NCCC[C@H](N)C(=O)O; Pen = CC(C)(S)[C@H](N)C(=O)O; dDab = NCC[C@@H](N)C(=O)O; Orn = NCCC[C@H](N)C(=O)O; Dab = NCC[C@H](N)C(=O)O
# Tests used:
# Format in all cases: cell-based
# [1] = system: Escherichia coli MCR-1 Af 45; conditions: MCR-1 Af 45
# Outline: (§1)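 CLSI broth microdilution, slightly modified: cation-adjusted Mueller-Hinton II broth with about 5×10^5 CFU/mL from a 0.5 McFarland suspension, and two-fold serial peptide dilutions with Polysorbate 80 at 0.002% final. MIC (μg/mL) was the lowest concentration with no visible growth after 18-20 hours at 35° C.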
# [2] = system: Klebsiella pneumoniae SSI3010; conditions: SSI3010
# Outline: as §1
# [3] = system: Escherichia coli ATCC 25922; conditions: ATCC 25922
# Outline: as §1
# [4] = system: human red blood cells (hRBC); conditions: red cells of human, 1 h, 200 μg/mL
# Outline: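 Peptides at 200 μg/mL incubated 1 h at 37 °C with 20% (v/v) washed human RBC, shaking. Hemolysis from supernatant OD540, expressed as percent of 2.5% Triton X-100 lysis, with PBS as 0%.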
Compound,Escherichia coli MCR-1 Af45 MIC [1],Klebsiella pneumoniae SSI3010 MIC [2],Escherichia coli ATCC 25922 MIC [3],Hemolysis at 0.2 g/L [4]
"CC[C@H](C)[C@H](NC(=O)[C@@H]1C[C@@H](O)CN1C(=O)[C@@H](NC(=N)N)C(C)C)C(=O)N[C@@H]1C(=O)N[C@@H](Cc2ccc(O)cc2)C(=O)N[C@@H](CCN)C(=O)N[C@@H](CC(N)=O)C(=O)N[C@@H](CCCNC(=N)N)C(=O)N[C@@H](CCN)C(=O)N[C@@H]([C@@H](C)O)C(=O)N[C@H](CCN)C(=O)N[C@@H](CCN)C(=O)N[C@@H]([C@@H](C)O)C(=O)N[C@@H](CCN)C(=O)N[C@H](C(=O)N[C@@H](Cc2ccc(O)cc2)C(=O)O)CSSC1(C)C [Example 120, Gua-Val-Hyp-Ile-Pen-Tyr-Dab-Asn-Arg-Dab-Thr-^DDab-Dab-Thr-Dab-Cys-Tyr] ({Val(Nα-amidino)}-[Hyp]I[Pen]Y[Dab]NR[Dab]T[dDab][Dab]T[Dab]CY-OH; disulfide 3-14)",0.0625 µg/mL,0.125 µg/mL,0.125 µg/mL,<1%
"CC[C@H](C)[C@H](NC(=O)[C@@H]1C[C@@H](O)CN1C(=O)[C@@H](NC(=N)N)C(C)C)C(=O)N[C@@H]1C(=O)N[C@@H](Cc2ccc(O)cc2)C(=O)N[C@@H](CCN)C(=O)N[C@@H](CC(N)=O)C(=O)N[C@@H](CCCNC(=N)N)C(=O)N[C@@H](CCN)C(=O)N[C@@H]([C@@H](C)O)C(=O)N[C@H](CCN)C(=O)N[C@@H](CCCN)C(=O)N[C@@H]([C@@H](C)O)C(=O)N[C@@H](CCN)C(=O)N[C@H](C(=O)N[C@@H](Cc2ccc(O)cc2)C(=O)O)CSSC1(C)C [Example 121, Gua-Val-Hyp-Ile-Pen-Tyr-Dab-Asn-Arg-Dab-Thr-^DDab-Orn-Thr-Dab-Cys-Tyr] ({Val(Nα-amidino)}-[Hyp]I[Pen]Y[Dab]NR[Dab]T[dDab][Orn]T[Dab]CY-OH; disulfide 3-14)",0.0625 µg/mL,0.125 µg/mL,0.0625 µg/mL,<1%
"CC[C@H](C)[C@H](NC(=O)[C@@H]1C[C@@H](O)CN1C(=O)[C@@H](NC(=N)N)C(C)C)C(=O)N[C@@H]1C(=O)N[C@@H](Cc2ccc(O)cc2)C(=O)N[C@@H](CCCNC(N)=O)C(=O)N[C@@H](CC(N)=O)C(=O)N[C@@H](CCCNC(=N)N)C(=O)N[C@@H](CCN)C(=O)N[C@@H]([C@@H](C)O)C(=O)N[C@H](CCN)C(=O)N[C@@H](CO)C(=O)N[C@@H](CCN)C(=O)N[C@@H](CCN)C(=O)N[C@H](C(=O)N[C@@H](Cc2ccc(O)cc2)C(=O)O)CSSC1(C)C [Example 122, Gua-Val-Hyp-Ile-Pen-Tyr-Cit-Asn-Arg-Dab-Thr-^DDab-Ser-Dab-Dab-Cys-Tyr] ({Val(Nα-amidino)}-[Hyp]I[Pen]Y[Cit]NR[Dab]T[dDab]S[Dab][Dab]CY-OH; disulfide 3-14)",0.25 µg/mL,0.25 µg/mL,0.125 µg/mL,<1%
"CC[C@H](C)[C@H](NC(=O)[C@@H]1C[C@@H](O)CN1C(=O)[C@@H](NC(=N)N)C(C)C)C(=O)N[C@@H]1C(=O)N[C@@H](Cc2ccc(O)cc2)C(=O)N[C@@H]([C@@H](C)O)C(=O)N[C@@H](CC(N)=O)C(=O)N[C@@H](CCCNC(=N)N)C(=O)N[C@@H](CCN)C(=O)N[C@@H]([C@@H](C)O)C(=O)N[C@H](CCN)C(=O)N[C@@H](CCN)C(=O)N[C@@H](CCN)C(=O)N[C@@H](CCN)C(=O)N[C@H](C(=O)N[C@@H](Cc2ccc(O)cc2)C(=O)O)CSSC1(C)C [Example 123, Gua-Val-Hyp-Ile-Pen-Tyr-Thr-Asn-Arg-Dab-Thr-^DDab-Dab-Dab-Dab-Cys-Tyr] ({Val(Nα-amidino)}-[Hyp]I[Pen]YTNR[Dab]T[dDab][Dab][Dab][Dab]CY-OH; disulfide 3-14)",0.03125 µg/mL,0.0625 µg/mL,0.0625 µg/mL,<1%

# Source: US20240336654A1, “ANTIMICROBIAL PEPTIDOMIMETICS” (SPEXIS AG, priority 2021, published 2024)
